Data on seven compounds can be found in US20250326753A1, “DUAL CXCR4-BTK INHIBITORS” (X4 Pharmaceuticals, Inc., priority 2022, published 2025).

In one experiment the target is T1, FGFR2 (Homo sapiens, UniProt P21802).
T1 construct: purchased Reaction Biology Europe GmbH
Kind of experiment: PanQinase kinase panel: FGFR2. The note with it: read-out: INHIBITORY EFFECT @ 1 uM: FGFR2. The class given is biochemical. How it is done:
Screening procedures were performed in accordance with the company's on-line protocol [accessed on-line Mar. 25, 2022 at reaction biology.com/assay-protocol-panqinase]. Inhibitory activity of 50% or greater at concentrations of 1 μM are highlighted for all five compounds tested.
(§1) For each kinase, the median value of the cpm of three wells was defined as “low control” (n=3). This value reflects unspecific binding of radioactivity to the plate in the absence of a protein kinase but in the presence of the substrate. Additionally, for each kinase the median value of the cpm of three other wells was taken as the “high control,” i.e. full activity in the absence of any inhibitor (n=3). The difference between high and low control of each enzyme was taken as 100% activity.
(§2) As part of the data evaluation the low control of each kinase was subtracted from the high control value as well as from their corresponding “compound values”. The residual activity (in %) for each compound well was calculated by using the following formula: Res. Activity (%)=100×[(signal of compound−low control)/(high control−low control)].

Another experiment has as its target T2, AuroraA (Homo sapiens, UniProt O14965).
T2 construct: purchased Reaction Biology Europe GmbH
T2 sequence (O14965 1-403): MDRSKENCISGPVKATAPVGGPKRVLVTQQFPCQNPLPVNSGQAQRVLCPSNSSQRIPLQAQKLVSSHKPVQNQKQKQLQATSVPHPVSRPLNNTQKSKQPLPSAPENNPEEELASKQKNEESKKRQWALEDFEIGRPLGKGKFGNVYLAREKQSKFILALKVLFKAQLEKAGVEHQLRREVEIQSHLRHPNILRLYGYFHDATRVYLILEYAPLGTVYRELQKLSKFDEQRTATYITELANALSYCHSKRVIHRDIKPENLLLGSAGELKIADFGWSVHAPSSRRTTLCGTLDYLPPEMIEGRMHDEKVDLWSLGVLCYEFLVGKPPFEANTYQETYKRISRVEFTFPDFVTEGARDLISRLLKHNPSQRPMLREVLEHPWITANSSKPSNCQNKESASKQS
In words: PanQinase kinase panel: AuroraA. The class given is biochemical. How it is done: (§3) Screening procedures were performed in accordance with the company's on-line protocol [accessed on-line Mar.
as §1, §2

For the next experiment, the target named is T3, MEKK3 (Homo sapiens, UniProt Q99759).
T3 construct: purchased Reaction Biology Europe GmbH
T3 sequence (Q99759 1-626): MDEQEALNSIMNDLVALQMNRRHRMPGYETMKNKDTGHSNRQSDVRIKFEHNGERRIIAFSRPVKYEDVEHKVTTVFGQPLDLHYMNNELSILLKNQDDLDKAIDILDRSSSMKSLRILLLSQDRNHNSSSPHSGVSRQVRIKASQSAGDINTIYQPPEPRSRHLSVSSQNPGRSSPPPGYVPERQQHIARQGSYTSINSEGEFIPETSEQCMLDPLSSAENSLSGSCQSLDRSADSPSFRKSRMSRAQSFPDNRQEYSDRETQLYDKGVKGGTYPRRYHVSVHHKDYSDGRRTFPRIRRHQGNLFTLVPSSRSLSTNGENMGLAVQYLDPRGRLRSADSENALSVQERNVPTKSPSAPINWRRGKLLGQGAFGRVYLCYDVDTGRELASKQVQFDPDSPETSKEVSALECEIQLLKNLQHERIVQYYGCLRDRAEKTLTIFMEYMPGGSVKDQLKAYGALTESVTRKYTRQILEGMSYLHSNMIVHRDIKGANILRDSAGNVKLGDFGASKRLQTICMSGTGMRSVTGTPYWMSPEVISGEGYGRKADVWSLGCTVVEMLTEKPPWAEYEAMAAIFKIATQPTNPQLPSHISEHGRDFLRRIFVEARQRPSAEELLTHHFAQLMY
Kind of experiment: PanQinase kinase panel: MEKK3. It is filed as biochemical. Particulars: read-out: INHIBITORY EFFECT @ 1 uM: MEKK3. As for the experimental part:
as §3, §1, §2

Another experiment relates to U-87 MG. In words: Glioblastoma multiforme cell proliferation assay (CellTiter Glo), U-87 MG. It is filed as cell-based. The note with it: Homo sapiens; for Emax: read-out: GBM-U87MG Cell Proliferation Emax %. How it is done: Inhibition of glioblastoma multiforme cell proliferation by compounds of the present invention was evaluated in U-87 MG (ATCC; Cat. No. HTB-14; Lot. No. 5018014) and T98G (ATCC; Cat. No. CRL-1690; Lot. No. 58267513) cell lines. These are adherent cell lines isolated from glioblastoma multiforme/malignant glioma, which express both CXCR4 and BTK (see Zhou et al. 2002 and Yue et al. 2017).
Cell viability was analyzed with the CellTiter Glo Cell assay kit ([…], Cat. No. G7573, Lot. No. 0000474103), according to the manufacturer's instruction.
U-87 MG and T98G cells were seeded onto 384-well opaque-walled clear bottom plates (Corning, Cat. No. 3765, Lot. No. 34319047) in EMEM (Invitrogen, Cat. No. 11095-080; Lot. No. 2276656) supplemented with 10% FBS (Invitrogen, Cat. No. 10099-141C, Lot. No. 2145169CP), at a seeding density of 1000 or 1200 cells per well, respectively, and then incubated in 5% CO2 at 37° C. overnight.
Compounds were prepared as stock solutions of 30 mM in DMSO (Sigma, Cat. No. 276855-1L. Lot. No. SHBL5610). Compounds were added to the cells, with 10 dose points in duplicates, in 3-fold dilution from a top concentration of 30 μM (final DMSO concentration […]), and incubated in 5% CO2 at 37° C. for 96 hr.
The 384-well plates were equilibrated at room temperature for approximately 30 min. 25 μl of CellTiter-Glo® Reagent was added to each well and mixed for 10 min on an orbital shaker to induce cell lysis. The 384-well plates were incubated at room temperature for 10 min to stabilize luminescent signal. Luminescence was detected on a PerkinElmer EnVision Multimode Plate Reader (measurement time 0.1s) as relative luminescence units (RLU).
A general note: ATP-based viability assays read luminescence as a measure of living cells.

The target of a further experiment is T4, ABL1 (Homo sapiens, UniProt P00519).
T4 construct: purchased Reaction Biology Europe GmbH
Kind of experiment: PanQinase kinase panel: ABL1. The class given is biochemical. As for the experimental part:
as §3, §1, §2

The mark [1] stands for this setting: at 1 μM, read-out: inhibition of AuroraA.
[2] abbreviates: read-out: INHIBITORY EFFECT @ 1 uM: AuroraA.
[3] abbreviates: read-out: INHIBITORY EFFECT @ 1 uM: ABL1.
[4] abbreviates: Table 6A, cell viability, 96 hr, read-out: U-87 MG IC50.

Read-outs that look alike come from different tables or passages of the source.

T1 sequence (P21802 22-821): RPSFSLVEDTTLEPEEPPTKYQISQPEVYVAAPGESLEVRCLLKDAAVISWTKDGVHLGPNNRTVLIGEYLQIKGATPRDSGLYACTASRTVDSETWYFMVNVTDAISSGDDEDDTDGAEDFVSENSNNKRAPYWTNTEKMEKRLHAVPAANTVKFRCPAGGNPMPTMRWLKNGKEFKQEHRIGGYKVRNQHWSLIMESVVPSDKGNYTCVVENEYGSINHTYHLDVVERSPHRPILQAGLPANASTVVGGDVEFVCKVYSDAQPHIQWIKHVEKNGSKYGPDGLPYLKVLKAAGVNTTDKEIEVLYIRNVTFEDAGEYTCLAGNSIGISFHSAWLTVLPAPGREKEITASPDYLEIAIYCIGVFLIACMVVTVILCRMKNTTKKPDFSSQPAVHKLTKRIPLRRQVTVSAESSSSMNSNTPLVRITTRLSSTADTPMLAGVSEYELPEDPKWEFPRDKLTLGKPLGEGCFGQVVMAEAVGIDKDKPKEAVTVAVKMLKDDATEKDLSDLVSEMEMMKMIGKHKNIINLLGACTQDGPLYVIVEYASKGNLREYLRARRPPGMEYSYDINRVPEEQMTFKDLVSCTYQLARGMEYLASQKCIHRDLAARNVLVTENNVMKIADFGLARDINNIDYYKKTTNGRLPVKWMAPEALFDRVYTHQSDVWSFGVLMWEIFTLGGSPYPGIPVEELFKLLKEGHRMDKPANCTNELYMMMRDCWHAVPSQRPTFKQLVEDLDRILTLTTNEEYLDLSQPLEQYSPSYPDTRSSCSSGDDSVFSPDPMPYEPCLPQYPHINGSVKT
T4 sequence (P00519 whole entry): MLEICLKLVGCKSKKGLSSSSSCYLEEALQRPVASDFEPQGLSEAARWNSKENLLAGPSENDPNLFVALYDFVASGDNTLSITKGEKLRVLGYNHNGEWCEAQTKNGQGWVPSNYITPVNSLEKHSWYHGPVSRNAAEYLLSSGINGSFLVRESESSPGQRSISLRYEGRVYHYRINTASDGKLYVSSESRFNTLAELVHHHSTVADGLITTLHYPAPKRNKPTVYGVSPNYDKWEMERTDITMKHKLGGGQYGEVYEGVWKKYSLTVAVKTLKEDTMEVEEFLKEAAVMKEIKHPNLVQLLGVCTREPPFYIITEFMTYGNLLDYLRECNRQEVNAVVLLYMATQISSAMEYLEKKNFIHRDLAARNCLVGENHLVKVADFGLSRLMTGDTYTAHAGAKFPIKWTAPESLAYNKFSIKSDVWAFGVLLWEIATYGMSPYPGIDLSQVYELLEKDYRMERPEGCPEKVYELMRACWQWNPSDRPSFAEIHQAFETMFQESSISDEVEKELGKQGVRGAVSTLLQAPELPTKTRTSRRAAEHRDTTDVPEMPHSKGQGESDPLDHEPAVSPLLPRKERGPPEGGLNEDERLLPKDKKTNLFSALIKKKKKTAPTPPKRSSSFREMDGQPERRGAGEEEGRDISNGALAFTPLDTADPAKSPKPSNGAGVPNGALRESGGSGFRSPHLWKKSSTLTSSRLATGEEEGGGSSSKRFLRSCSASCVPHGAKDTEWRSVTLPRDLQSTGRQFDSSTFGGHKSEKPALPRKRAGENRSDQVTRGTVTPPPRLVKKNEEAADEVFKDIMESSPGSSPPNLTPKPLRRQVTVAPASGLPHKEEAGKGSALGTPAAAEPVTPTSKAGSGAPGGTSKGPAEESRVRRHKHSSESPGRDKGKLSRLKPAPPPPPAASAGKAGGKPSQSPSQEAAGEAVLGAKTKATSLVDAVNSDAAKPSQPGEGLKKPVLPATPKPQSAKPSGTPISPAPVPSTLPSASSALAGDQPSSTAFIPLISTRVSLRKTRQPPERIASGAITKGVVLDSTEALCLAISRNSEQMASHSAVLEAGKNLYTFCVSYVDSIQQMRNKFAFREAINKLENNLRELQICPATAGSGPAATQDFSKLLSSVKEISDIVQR

Turning to `O=C(c1ccc(Oc2ccccc2)cc1Cl)c1c[nH]c2ncnc(N[C@@H]3CC[C@@H](CO)OC3)c12` [ARQ-531, (2-chloro-4-phenoxyphenyl) (4-(((3R,6S)-6-(hydroxymethyl)tetrahydro-2H-pyran-3-yl)amino)-7H-pyrrolo[2,3-d]pyrimidin-5-yl) methanone], the inhibition at 1 µM on FGFR2 was 90 to 100%; on AuroraA (setting [1]), ≥ 50%; on AuroraA (setting [2]), 50 to 69%; on MEKK3 it was 50 to 69%.

In the case of `Cc1cccnc1[C@H]1CCC[C@@H](c2ncccc2C)N1CCN1CCN(C(=O)c2ccc(-c3cc4c(-c5cccc(NC(=O)c6ccccc6)c5C)ncnc4[nH]3)cc2)CC1` [Compound I-10, N-(3-(6-(4-(4-(2-((2R,6S)-2,6-bis(3-methylpyridin-2-yl)piperidin-1-yl)ethyl)piperazine-1-carbonyl)phenyl)-7H-pyrrolo[2,3-d]pyrimidin-4-yl)-2-methylphenyl)benzamide], the Emax with U-87 MG (Table 6B) was 101%. For the same compound, in the experiment with U-87 MG (read-out: GBM-U87MG Cell Proliferation IC50 uM), the IC50 was 0.76 µM. Moreover, the inhibition at 1 µM at FGFR2 was < 50%; at AuroraA (setting [1]), 50 to 89%; on AuroraA (setting [2]), 50 to 69%; on ABL1 (at 1 μM, read-out: inhibition of ABL1) it was 50 to 89%; on ABL1 (setting [3]), 70 to 89%; at MEKK3 it was < 50%.

Regarding `Cc1cc(-c2ccnc(Nc3cnn(CCN4[C@@H](c5ncccc5C)CCC[C@H]4c4ncccc4C)c3)n2)ccc1CNC(=O)N1CC(OC(C)C)C1` [Compound I-11], the Emax with U-87 MG (Table 6B) came out at 96%. The IC50 with U-87 MG (Table 6B, read-out: GBM-U87MG Cell Proliferation IC50) turned out to be 0.66 µM.

Turning to `Cc1cccnc1[C@H]1CCC[C@@H](c2ncccc2C)N1CCCCNC(=O)[C@@H]1CC[C@@H](Nc2ncnc3[nH]cc(C(=O)c4ccc(Oc5ccccc5)cc4Cl)c23)CO1` [Compound I-16], the IC50 in the experiment with U-87 MG (setting [4]) worked out at 1.3 µM.

Turning to `Cc1cccnc1[C@H]1CCC[C@@H](c2ncccc2C)N1CCCCNC(=O)OC[C@@H]1CC[C@@H](Nc2ncnc3[nH]cc(C(=O)c4ccc(Oc5ccccc5)cc4Cl)c23)CO1` [Compound I-18], the IC50 in the experiment with U-87 MG (setting [4]) is 1.2 µM.

On to `COc1ccc(F)cc1C(=O)NCc1ccc(-c2nn([C@@H](C)C(F)(F)F)c(N)c2C(N)=O)cc1` [LOXO-305, pirtobrutinib], for which the inhibition at 1 µM on FGFR2, at AuroraA (setting [2]), at ABL1 (setting [3]) and at MEKK3 was < 50% in each case.

Regarding `C=CC(=O)N1CCC([C@@H]2CCNc3c(C(N)=O)c(-c4ccc(Oc5ccccc5)cc4)nn32)CC1` [Zanubrutinib, (7S)-2-(4-phenoxyphenyl)-7-(1-prop-2-enoylpiperidin-4-yl)-4,5,6,7-tetrahydropyrazolo[1,5-a]pyrimidine-3-carboxamide], the inhibition at 1 µM on FGFR2, at AuroraA (setting [2]), at ABL1 (setting [3]) and on MEKK3 was < 50% in each case.
